Data taken from publication PMC10752118 (Therapeutic Advances in Medical Oncology, 2023).
Each block holds one compound with its values, some of them ahead of it.

Tests used:
[1] = tested on: treatment refractory HER2 over-expressing breast cancer; conditions: in combination with weekly trastuzumab and paclitaxel, nine patients; cited from earlier work
[2] = tested on: patients with advanced TNBC; test: Phase Ib 3 + 3 dose escalation: DLT assessment, MTD and RP2D; format: in vivo, human
[3] = Plasma PK, noncompartmental analysis; format: in vivo, human; conditions: for observed clearance (CL), dose dependence: 1 h IV infusion
[4] = target: HSP90; conditions: read-out: dissociation constant (Kd); cited from earlier work
[5] = prior single-agent study; cited from earlier work
[6] = tested on: P-glycoprotein (P-gp) multidrug transporter; conditions: cited from earlier work
[7] = tested on: uridine diphosphate-glucoronosyltransferases; conditions: cited from earlier work
[8] = cited from earlier work
[9] = Day 7 (no paclitaxel), DL1, onalespib 120 mg/m^2 IV, geometric mean ± SD
[10] = Day 7 (no paclitaxel), DL2, onalespib 150 mg/m^2 IV, geometric mean ± SD
[11] = Day 7 (no paclitaxel), DL3, onalespib 200 mg/m^2 IV, geometric mean ± SD
[12] = Day 7 (no paclitaxel), DL4, onalespib 260 mg/m^2 IV, geometric mean ± SD
[13] = Day 8 (with 80 mg/m^2 paclitaxel), DL1, onalespib 120 mg/m^2 IV, geometric mean ± SD
[14] = Day 8 (with 80 mg/m^2 paclitaxel), DL2, onalespib 150 mg/m^2 IV, geometric mean ± SD
[15] = Day 8 (with 80 mg/m^2 paclitaxel), DL3, onalespib 200 mg/m^2 IV, geometric mean ± SD
[16] = Day 8 (with 80 mg/m^2 paclitaxel), DL4, onalespib 260 mg/m^2 IV, geometric mean ± SD
[17] = Day 1 (no onalespib), 80 mg/m^2 paclitaxel IV, DL1, geometric mean ± SD
[18] = Day 1 (no onalespib), 80 mg/m^2 paclitaxel IV, DL2, geometric mean ± SD
[19] = Day 1 (no onalespib), 80 mg/m^2 paclitaxel IV, DL3, geometric mean ± SD
[20] = Day 1 (no onalespib), 80 mg/m^2 paclitaxel IV, DL4, geometric mean ± SD

Compound: CC(C)c1cc(-c2n[nH]c(=O)n2-c2ccc3c(ccn3C)c2)c(O)cc1O [ganetespib]
partial response [1]: 22% | stable disease [1]: 56%

Compound: CC(C)c1cc(C(=O)N2Cc3ccc(CN4CCN(C)CC4)cc3C2)c(O)cc1O [onalespib, (2,4-dihydroxy-5-isopropylphenyl)-[5-(4-methylpiperazin-1-ylmethyl)-1,3-dihydroisoindol-2-yl]methanone]
MTD of onalespib ([2]; combined with paclitaxel 80 mg/m^2, IV days 1, 8, 15 of 28-day cycle): 260 mg/m^2 | RP2D of onalespib ([2]; given with paclitaxel 80 mg/m^2, IV days 1, 8, 15 of 28-day cycle): 260 mg/m^2 | exposure (AUCinf and Cmax), dose proportionality ([3]; 120 to 260 mg/m^2): approximately dose-proportional | observed clearance (CL), dose dependence [3]: independent of dose | CL [3, 9]: 42.6 ± 4.99 L/h/m^2 | Vz [3, 9]: 344 ± 134 L/m^2 | CL [3, 10]: 51.1 ± 4.37 L/h/m^2 | Vz [3, 10]: 443 ± 23.2 L/m^2 | CL [3, 11]: 48.4 ± 29.2 L/h/m^2 | Vz [3, 11]: 522 ± 273 L/m^2 | CL [3, 12]: 41.6 ± 10.0 L/h/m^2 | Vz [3, 12]: 427 ± 102 L/m^2 | CL [3, 13]: 47.9 ± 2.03 L/h/m^2 | Vz [3, 13]: 730 ± 121 L/m^2 | CL [3, 14]: 64.3 ± 21.0 L/h/m^2 | Vz [3, 14]: 801 ± 263 L/m^2 | CL [3, 15]: 51.4 ± 14.8 L/h/m^2 | Vz [3, 15]: 717 ± 282 L/m^2 | CL [3, 16]: 45.2 ± 13.4 L/h/m^2 | Vz [3, 16]: 598 ± 208 L/m^2 | effect of combination with paclitaxel on overall exposure (AUCinf and Cmax) ([3]; cycle 1 day –7 versus day 8): no apparent changes in overall exposure | AUC(0-inf) ([3]; human, plasma, intravenous, AUCinf, range, single agent, cycle 1, day –7, all DLs (120 to 260 mg/m^2)): 4.3 to 22.7 µM·h | half-life ([3]; human, plasma, intravenous, mean t1/2, range across DLs, as a single agent only): 6.04 to 7.32 h | AUC(0-inf) ([3]; human, plasma, iv, 120 mg/m2, AUCinf, Day 7 (no paclitaxel), DL1, onalespib 120 mg/m^2 IV, geometric mean ± SD): 6.72 ± 0.688 µM·h | Cmax ([3]; human, plasma, iv, 120 mg/m2, Cmax, Day 7 (no paclitaxel), DL1, onalespib 120 mg/m^2 IV, geometric mean ± SD): 2.8 ± 0.844 µM | half-life ([3]; human, plasma, iv, 120 mg/m2, t1/2, Day 7 (no paclitaxel), DL1, onalespib 120 mg/m^2 IV, median (range)): 7.23 h | AUC(0-inf) ([3]; human, plasma, iv, 200 mg/m2, AUCinf, Day 7 (no paclitaxel), DL3, onalespib 200 mg/m^2 IV, geometric mean ± SD): 10 ± 4.35 µM·h | Cmax ([3]; human, plasma, iv, 200 mg/m2, Cmax, Day 7 (no paclitaxel), DL3, onalespib 200 mg/m^2 IV, geometric mean ± SD): 3.21 ± 2.56 µM | half-life ([3]; human, plasma, iv, 200 mg/m2, t1/2, Day 7 (no paclitaxel), DL3, onalespib 200 mg/m^2 IV, median (range)): 7.32 h | AUC(0-inf) ([3]; human, plasma, iv, 260 mg/m2, AUCinf, Day 7 (no paclitaxel), DL4, onalespib 260 mg/m^2 IV, geometric mean ± SD): 15.2 ± 3.84 µM·h | Cmax ([3]; human, plasma, iv, 260 mg/m2, Cmax, Day 7 (no paclitaxel), DL4, onalespib 260 mg/m^2 IV, geometric mean ± SD): 5.36 ± 2.8 µM | half-life ([3]; human, plasma, iv, 260 mg/m2, t1/2, Day 7 (no paclitaxel), DL4, onalespib 260 mg/m^2 IV, median (range)): 6.83 h | AUC(0-inf) ([3]; human, plasma, iv, AUCinf, Day 8 (with 80 mg/m^2 paclitaxel), DL1, onalespib 120 mg/m^2 IV, geometric mean ± SD): 6.1 ± 0.244 µM·h | AUC(0-inf) ([3]; human, plasma, iv, AUCinf, Day 8 (with 80 mg/m^2 paclitaxel), DL2, onalespib 150 mg/m^2 IV, geometric mean ± SD): 5.64 ± 2.32 µM·h | AUC(0-inf) ([3]; human, plasma, iv, AUCinf, Day 8 (with 80 mg/m^2 paclitaxel), DL3, onalespib 200 mg/m^2 IV, geometric mean ± SD): 9.46 ± 2.24 µM·h | AUC(0-inf) ([3]; human, plasma, iv, AUCinf, Day 8 (with 80 mg/m^2 paclitaxel), DL4, onalespib 260 mg/m^2 IV, geometric mean ± SD): 14 ± 4.66 µM·h | Cmax ([3]; human, plasma, iv, Cmax, Day 8 (with 80 mg/m^2 paclitaxel), DL1, onalespib 120 mg/m^2 IV, geometric mean ± SD): 2.74 ± 0.676 µM | Cmax ([3]; human, plasma, iv, Cmax, Day 8 (with 80 mg/m^2 paclitaxel), DL2, onalespib 150 mg/m^2 IV, geometric mean ± SD): 2.41 ± 1.03 µM | Cmax ([3]; human, plasma, iv, Cmax, Day 8 (with 80 mg/m^2 paclitaxel), DL3, onalespib 200 mg/m^2 IV, geometric mean ± SD): 4.64 ± 2.64 µM | Cmax ([3]; human, plasma, iv, Cmax, Day 8 (with 80 mg/m^2 paclitaxel), DL4, onalespib 260 mg/m^2 IV, geometric mean ± SD): 5.53 ± 4.5 µM | half-life ([3]; human, plasma, iv, t1/2, Day 8 (with 80 mg/m^2 paclitaxel), DL1, onalespib 120 mg/m^2 IV, median (range)): 10.5 h | half-life ([3]; human, plasma, iv, t1/2, Day 8 (with 80 mg/m^2 paclitaxel), DL2, onalespib 150 mg/m^2 IV, median (range)): 8.55 h | half-life ([3]; human, plasma, iv, t1/2, Day 8 (with 80 mg/m^2 paclitaxel), DL3, onalespib 200 mg/m^2 IV, median (range)): 9.62 h | half-life ([3]; human, plasma, iv, t1/2, Day 8 (with 80 mg/m^2 paclitaxel), DL4, onalespib 260 mg/m^2 IV, median (range)): 9.11 h | Kd [4]: 0.71 nM | maximum tolerated dose [5]: 260 mg/m^2 | interaction with P-gp [6]: substrate and moderate inhibitor of P-gp | glucuronidation substrate status [7]: substrate for glucuronidation | water solubility [8]: High water solubility

observed clearance (CL), dose dependence [3]: independent of dose | CL [3, 17]: 12.6 ± 2.63 L/h/m^2 | Vz [3, 17]: 279 ± 41.9 L/m^2 | AUCinf [3, 18]: 5.59 ± 0.185 µM·h | CL [3, 18]: 16.8 ± 0.535 L/h/m^2 | Cmax [3, 18]: 4.17 ± 0.299 µM | Vz [3, 18]: 216 ± 19.3 L/m^2 | CL [3, 19]: 15.3 ± 4.77 L/h/m^2 | Cmax [3, 19]: 4.45 ± 2.28 µM | Vz [3, 19]: 206 ± 89.8 L/m^2 | CL [3, 20]: 11.9 ± 2.78 L/h/m^2 | Cmax [3, 20]: 4.68 ± 1.82 µM | Vz [3, 20]: 181 ± 46.0 L/m^2 | t1/2 ([3]; Day 8, 80 mg/m^2 paclitaxel IV with onalespib 120 mg/m^2, DL1, median (range)): 15.0 (13.1–15.4) h | AUC(0-inf) ([3]; human, plasma, intravenous, 80 mg/m^2, Mean AUCinf, range across DLs, single agent, cycle 1, day 1, 80 mg/m^2): 5.59 to 7.75 µM·h | Cmax ([3]; human, plasma, intravenous, 80 mg/m^2, Mean Cmax, range across DLs, single agent, cycle 1, day 1, 80 mg/m^2): 3.87 to 4.68 µM | AUC(0-inf) ([3]; human, plasma, intravenous, mean AUCinf, range across all four DLs, cycle 1, day 8, 80 mg/m^2 in combination with onalespib): 6.5 to 8.72 µM·h | Cmax ([3]; human, plasma, intravenous, mean Cmax, range across all four DLs, cycle 1, day 8, 80 mg/m^2 in combination with onalespib): 2.99 to 4.23 µM | AUC(0-inf) ([3]; human, plasma, iv, 80 mg/m2, AUCinf, Day 1 (no onalespib), 80 mg/m^2 paclitaxel IV, DL1, geometric mean ± SD): 7.44 ± 1.54 µM·h | AUC(0-inf) ([3]; human, plasma, iv, 80 mg/m2, AUCinf, Day 1 (no onalespib), 80 mg/m^2 paclitaxel IV, DL3, geometric mean ± SD): 6.1 ± 2.24 µM·h | AUC(0-inf) ([3]; human, plasma, iv, 80 mg/m2, AUCinf, Day 1 (no onalespib), 80 mg/m^2 paclitaxel IV, DL4, geometric mean ± SD): 7.75 ± 1.75 µM·h | half-life ([3]; human, plasma, iv, 80 mg/m2, t1/2, Day 1 (no onalespib), 80 mg/m^2 paclitaxel IV, DL2, median (range)): 9.18 h | half-life ([3]; human, plasma, iv, 80 mg/m2, t1/2, Day 1 (no onalespib), 80 mg/m^2 paclitaxel IV, DL3, median (range)): 9.06 h | half-life ([3]; human, plasma, iv, 80 mg/m2, t1/2, Day 1 (no onalespib), 80 mg/m^2 paclitaxel IV, DL4, median (range)): 10.6 h | AUC(0-inf) ([3]; human, plasma, iv, AUCinf, Day 8, 80 mg/m^2 paclitaxel IV with onalespib 120 mg/m^2, DL1, geometric mean ± SD): 7.97 ± 2.95 µM·h | AUC(0-inf) ([3]; human, plasma, iv, AUCinf, Day 8, 80 mg/m^2 paclitaxel IV with onalespib 200 mg/m^2, DL3, geometric mean ± SD): 6.47 ± 2.18 µM·h | AUC(0-inf) ([3]; human, plasma, iv, AUCinf, Day 8, 80 mg/m^2 paclitaxel IV with onalespib 260 mg/m^2, DL4, geometric mean ± SD): 8.72 ± 2.54 µM·h | Cmax ([3]; human, plasma, iv, Cmax, Day 8, 80 mg/m^2 paclitaxel IV with onalespib 120 mg/m^2, DL1, geometric mean ± SD): 2.99 ± 3.59 µM | Cmax ([3]; human, plasma, iv, Cmax, Day 8, 80 mg/m^2 paclitaxel IV with onalespib 200 mg/m^2, DL3, geometric mean ± SD): 4.23 ± 2.18 µM | half-life ([3]; human, plasma, iv, t1/2, Day 8, 80 mg/m^2 paclitaxel IV with onalespib 200 mg/m^2, DL3, median (range)): 8.67 h | half-life ([3]; human, plasma, iv, t1/2, Day 8, 80 mg/m^2 paclitaxel IV with onalespib 260 mg/m^2, DL4, median (range)): 10.7 h
Compound: CC(=O)O[C@H]1C(=O)[C@@]2(C)[C@H]([C@H](OC(=O)c3ccccc3)[C@]3(O)C[C@H](OC(=O)[C@H](O)[C@@H](NC(=O)c4ccccc4)c4ccccc4)C(C)=C1C3(C)C)[C@]1(OC(C)=O)CO[C@@H]1C[C@@H]2O [paclitaxel]
interaction with P-gp [6]: substrate for MDR1 P-gp
